# Source: patent publication US20220170028A1, “NOVEL INTERLEUKIN-2 VARIANTS AND BIFUNCTIONAL FUSION MOLECULES THEREOF” (Cugene Inc, priority 2019, published 2022)
# Experiments:
# [1] = Aggregate content by size-exclusion chromatography after Protein A purification; format: physicochemical; conditions: Isoleucine-125 constructs; after MabSelectSure
# Method: For affinity chromatography each supernatant was loaded on a HiTrap MabSelectSure column (CV=5 mL, GE Healthcare) equilibrated with 25 ml phosphate buffered saline, pH 7.2 (ThermoFisher). Unbound protein was removed by washing with 5 column volumes PBS, pH 7.2 and target protein was eluted with 25 mM sodium citrate, 25 mM sodium chloride, pH 3.2. Protein solution was neutralized by adding 3% of 1 M Tris pH 10.2. Ion exchange chromatography or mix-mode chromatography, including but not limited to CaptoMMC (GE Healthcare), ceramic hydroxyapatite, or ceramic fluoroapatite (Bio-Rad) was also utilized to polish the Protein A material as needed. Target protein was concentrated with an Amicon®Ultra-15 concentrator 10 KDa NMWC (Merck Millipore Ltd.)
# The purity and molecular weight of the purified constructs were analyzed by SDS-PAGE with and in the absence of a reducing agent and staining with Coomassie (Imperial® Stain). The NuPAGE® Pre-Cast gel system (4-12% or 8-16% Bis-Tris, ThermoFisher) was used according to the manufacturer's instructions. The protein concentration of purified protein samples was determined by measuring the UV absorbance at 280 nm (Nanodrop Spectrophotometer, ThermoFisher) divided by the molar extinction coefficient calculated on the basis of the amino acid sequence. The aggregate content of the constructs was analyzed on an Agilent 1200 high-performance liquid chromatography (HPLC) system. Samples were injected onto an AdvanceBio size-exclusion column (300 Å, 4.6×150 mm, 2.7 μm, LC column, Agilent) using 150 mM sodium phosphate, pH 7.0 as the mobile phase at 25° C.
# (§1) S125I substitution was thus introduced into a number of IL-2 variant Fc fusion molecules. The constructs harboring Ile-125 substitution in IL-2 were expressed using the same vector and in the same culturing conditions as their Ser-125 counterparts and purified using MabSelectSure. The expression level in mg/L and purity assessed by SEC chromatography in aggregation % of exemplary molecules are summarized in Table 6. The two molecules in the same row of Table 6 share the same other amino acid substitution(s) and differ only at residue 125 with either serine or isoleucine. As an example, the SEC chromatogram and SDS-PAGE pictures of P-0447 (SEQ ID NO: 173) and its Ile-125 counterpart P-0511 (SEQ ID NO: 213) were further illustrated in FIGS. 1D and 1E.
# [2] = Transient expression level of IL-2 Fc fusion constructs in HEK-293F cells; conditions: Isoleucine-125 constructs
# Method: The constructs were produced by co-transfecting HEK293-F cells growing in suspension with the mammalian expression vectors using polyethylenimine (PEI, 25,000 MW linear, Polysciences). If there were two or more expression vectors, the vectors were transfected in a 1:1 ratio. For transfection, HEK293 cells were cultivated in serum free FreeStyle™ 293 Expression Medium (ThermoFisher). For production in 1000 ml shaking flasks (working volume 330 mL), HEK293 cells were seeded at a density of 0.8×10^6 cells/ml 24 hours before transfection. A total of 330 μg of DNA expression vectors were mixed with 16.7 ml Opti-mem Medium (ThermoFisher). After addition of 0.33 mg PEI diluted in 16.7 ml Opti-mem Medium, the mixture was vortexed for 15 sec and subsequently incubated for 10 min at room temperature. The DNA/PEI solution was then added to the cells and incubated at 37° C. in an incubator with 8% CO2. Sodium butyrate (Millipore Sigma) was added to the cells at day 4 at a final concentration of […] to help sustain protein expression. After 6 days cultivation, supernatant was collected for purification by centrifugation for 20 min at 2200 rpm. The solution was sterile filtered (0.22 μm filter, Corning). The secreted protein was purified from cell culture supernatants using Protein A affinity chromatography.
# as §1
# [3] = system: STAT5 phosphorylation in CD4+ Treg cells; assay: STAT5 phosphorylation in CD4+ Treg cells, human PBMC assay by FACS; format: cell-based
# Description: (§2) Single amino acid substitutions were introduced to IL-2 at positions corresponding to amino acids interacting with receptor subunit(s) β or γ or βγ. These substitutions were aimed to reduce IL-2 signaling capacity through the intermediate affinity IL-2Rβγ complex and confer signaling specificity from the high affinity IL-2Rαβγ. IL-2 variants containing single amino acid substitutions were examined for their ability to differentially stimulate STAT5 phosphorylation in CD4 positive Treg and Tconv cells. STAT5 is known to be involved in the downstream signaling cascade upon IL-2 binding to the transmembrane IL-2 receptors. The phosphorylation of STAT5 in defined lymphocyte subpopulations was measured using fresh human peripheral blood mononuclear cells (PBMC) and the forkhead transcription factor FOXP3 was used to identify the Treg population in FACS analysis.
# (§3) Briefly, human PBMC were isolated by Ficoll-Hypaque centrifugation from the buffy coat of a healthy donor. PBMC were starved in serum-free MACS buffer at 4° C. for 1 hour. 2×10^5 PBMC were then treated with serial dilutions of test compounds for 30 min at 37° C. Cells were fixed and permeabilized with Foxp3/Transcription Factor Staining Buffer Set (EBIO) by incubating with 1× Foxp3 fixation/permeabilization working solution for 30 minutes and washing with 1× permeabilization buffer. Cells were additionally fixed with Cytofix buffer and permeabilized with Perm Buffer III (BD Biosciences) and then washed. After blocking Fc receptors by adding human TruStain FcX (1:50 dilution), cells were stained with a mixture of anti-CD25-PE, anti-FOXP3-APC, anti-pSTAT5-FITC, and anti-CD4-PerCP-Cy5.5 antibodies at concentrations recommended by the manufacturer for 45 minutes at room temperature. Cells were collected by centrifugation, washed, resuspended in FACS buffer, and analyzed by flow cytometry. The flow cytometry data was gated into CD4+/Foxp3+/CD25^high and CD4+/Foxp3−/CD25^low groups for the Treg and CD4 conventional T cell subsets, respectively. Data are expressed as a percent of pStat5 positive cells in gated population.
# [4] = system: CD4+ Treg vs CD4+ Tconv cells; assay: STAT5 phosphorylation, selectivity / activity profile Treg versus CD4+ Tconv cells, human PBMC; format: cell-based
# Description: as §2, §3
# The S125I substitution was then introduced into wild-type IL-2 or IL-2 variants that already harbored 1 or 2 mutations targeting receptor subunit(s) β or γ or βγ. The resulting IL-2 variants containing isoleucine at position 125 were tested for their ability to stimulate STAT5 phosphorylation in Treg and Tconv cells in comparison with their respective serine counterparts at position 125. Table 7 lists the potency and selectivity of IL-2 variants in Treg cells. The two molecules in the same row of Table 7 share the same other amino acid substitution(s) and differ only at position 125 with either serine or isoleucine.
# Treg cells [5] = assay: Treg pharmacodynamics in mice after repeated administration Q3D (Example 11); format: in vivo, mouse; conditions: after three consecutive Q3D treatments, 0.3 mg/kg s.c.
# Method: Female Balb/C mice (7-week old) were acclimated in house for 5-7 days before the study. Vehicle (PBS), 0.3 mg/kg of P-0511, P-0512, P-0531, or Benchmark-1 compound were subcutaneously administered to mice (n=5/group) on days 0, 3, and 6. On days 3 and 9, three days after the first injection and multiple (3) injections, respectively, peripheral blood was collected. Based on earlier in vivo experiments, Treg cell activation, proliferation, and expansion were expected to peak on day 3, and thus three days post injection was selected for data collection and analysis. Changes in blood lymphocyte activation, proliferation, and expansion were measured by flow cytometry. P-0531 is the S125I equivalent of the wild type IL-2 fusion protein. The Benchmark-1 contains V91K mutation.
# Treg cells [6] = assay: Treg proliferation and expansion in mice after a single subcutaneous injection (Example 9); format: in vivo, mouse; conditions: 0.3 mg/kg single s.c., C57/BL6 mice; for stimulation of Treg cell proliferation and expansion in vivo (in words): days 3, 5, 7
# Method: (§4) IL-2 variant Fc fusion proteins were administered to mice and their ability to preferentially proliferate and expand regulatory T cells (CD4+CD25+FoxP3+ T cells) over effector T cells and NK cells were determined in vivo.
# (§5) Female C57/BL6 mice (7-week old) were received from Charles River Laboratory and acclimated in house for at least 7 days before the study. Vehicle (PBS), 0.3 mg/kg of each test compounds, or IL-2 benchmark compounds were subcutaneously administered to mice on day 0. Peripheral blood samples were collected into heparin-treated tubes on days 3, 5 and 7 post-treatment. Each group contained 6 mice and baseline blood was collected 2 days prior to the treatment (day −2). After red blood cell lysis, total viable mononuclear blood cells were counted by trypan blue dead cell exclusion method and proceeded to intracellular staining for immune cell phenotype and Ki67 proliferation markers using flow cytometric analysis. Cells were stained separately with two panels of antibodies as listed: 1) anti-mouse Foxp3-FITC, Ki67-PE, anti-mouse CD25-APC and anti-mouse CD4-Percpcy5.5 (1:50 dilution) for CD4+T-regulatory cells (Treg); 2) anti-mouse CD3-FITC, Ki67-PE, anti-mouse CD335-APC and anti-mouse CD8-Percpcy5.5 (1:50 dilution) for CD8+T and NK cells.
# [7] = system: CD4+ Tconv cells, CD8 T cells and NK cells; assay: Effector T cell and NK cell proliferation and expansion in mice after a single subcutaneous injection (Example 9); format: in vivo, mouse; conditions: 0.3 mg/kg single s.c., C57/BL6 mice
# Method: as §4, §5
# [8] = system: KLH-induced DTH in Balb/C mice; assay: KLH-induced delayed-type hypersensitivity (DTH) mouse model, ear thickness; format: in vivo; conditions: 72 hours after KLH challenge, 4 consecutive daily dosing at 5 mg/kg i.p.
# Method: The ability of Treg cells induced by IL-2 variants to suppress T cell antigen-driven inflammation in vivo was assessed in a model of delayed-type hypersensitivity (DTH). Female Balb/C mice (7-week old) were acclimated in house for 7 days and randomized into groups. Subcutaneous administration of vehicle (PBS), P-0511 at either 0.1 mg/kg or 0.3 mg/kg was initiated on day −2 and was given either once every 3 days (Q3D) for three injections or once every 5 days (Q5D) for two injections. Mice were then sensitized with a subcutaneous administration of 100 μg keyhole limpet hemocyanin (KLH) in 200 μl saline on day 0. For Q3D dosing, two more subcutaneous injections of PBS or P-0511 (0.1 or 0.3 mg/kg) were administered on days 1, and 4; for Q5D dosing, one additional s.c. injection of PBS, 0.1 or 0.3 mg/kg P-0511 was administered on day 3. Mice received an intradermal challenge of KLH (5 μg in 10 μl saline) in right ear on day 5. Right ear thickness was measured using a caliper on day 5 prior KLH challenge and daily from day 6 to day 9 corresponding to 24 h, 48 h, 72 h and 96 h post KLH challenge. One group of mice also received 5 mg/kg daily i.p. treatment of dexamethasone from day 5 to day 8 as a positive control.
# Kinetics of the DTH response using the change in ear thickness relative to baseline values (Δ ear thickness) at various times after KLH challenge was illustrated in FIG. 23.
compound,measurement,setting,value
"P-0531: IL-2 S125I Fc fusion, S125I equivalent of wild type, SEQ ID NO: 167",Aggregation % (SEC),[1],0.7%
same,Expression,[2],29.5 mg/L
same,STAT5 phosphorylation activity in Treg cells (in words),[3],slightly increased potency
same,activity profile / selectivity window Treg over CD4+ Tconv (in words),[4],without altering Treg selectivity
same,Treg Selectivity,[4]; Isoleucine-125 constructs,Yes
same,% Treg over total CD4 T cells or over total lymphocytes,Treg cells [5],declined drastically to near control levels
"Benchmark-3: benchmark Fc-IL-2 variant fusion protein containing N88D, SEQ ID NO: 199 [reference compound]",stimulation of Treg cell proliferation and expansion in vivo (in words),Treg cells [6],not efficacious
same,Ki67 stimulation on CD8 T cells and NK cells in vivo (in words),[7],low effects
"C[C@@H]1C[C@H]2[C@@H]3CCC4=CC(=O)C=C[C@]4(C)[C@@]3(F)[C@@H](O)C[C@]2(C)[C@@]1(O)C(=O)CO [dexamethasone, reference compound]",inhibition of KLH-induced inflammatory response,[8],~85%
"P-0514: IL-2 L19Q/S125I/Q126E Fc fusion, SEQ ID NO: 216",Treg/Tconv ratio (Ki67 stimulation and cell counts),Treg cells [6]; all measured time points,most beneficial Treg/Tconv ratio
same,stimulation of Treg cell proliferation and expansion in vivo (in words),Treg cells [6],stronger in vivo efficacy
same,"expansion of CD4+ Tconv cells, CD8 T cells or NK cells in vivo",[7],No significant expansion
